≈ marks a conversion by molar mass, not a printed value.
Experiments:
[1] = target: Cyclin-dependent kinase 2 (Homo sapiens, UniProt P24941); test: Inhibition of CDK2 (unknown origin)
Bacillus subtilis [2] = test: Antibacterial activity against Bacillus subtilis MTCC 441 after 48 hrs by serial tube dilution method; assay type: functional; settings: MTCC 441, 48 h
Staphylococcus aureus [3] = test: Antibacterial activity against Staphylococcus aureus MTCC 7443 after 48 hrs by serial tube dilution method; assay type: functional; settings: MTCC 7443, 48 h
Escherichia coli [4] = test: Antibacterial activity against Escherichia coli MTCC 42 after 48 hrs by serial tube dilution method; assay type: functional; settings: for MIC: Escherichia coli, MTCC 42, 48 h
Pseudomonas aeruginosa = test: Antibacterial activity against Pseudomonas aeruginosa MTCC 741 after 48 hrs by serial tube dilution method; assay type: functional; settings: MTCC 741, 48 h
Candida albicans [5] = test: Antifungal activity against Candida albicans MTCC 183 after 120 hrs by serial tube dilution method; assay type: functional; settings: MTCC 183, 120 h
Aspergillus niger [6] = test: Antifungal activity against Aspergillus niger MTCC 282 after 120 hrs by serial tube dilution method; assay type: functional; settings: MTCC 282, 120 h
Candida albicans [7] = test: Antifungal activity against Candida albicans MTCC 183 assessed as zone of inhibition; assay type: functional
Aspergillus niger [8] = test: Antifungal activity against Aspergillus niger MTCC 282 assessed as zone of inhibition; assay type: functional
Bacillus subtilis [9] = test: Antibacterial activity against Bacillus subtilis MTCC 441 assessed as zone of inhibition; assay type: functional
Staphylococcus aureus [10] = test: Antibacterial activity against Staphylococcus aureus MTCC 7443 assessed as zone of inhibition; assay type: functional
Escherichia coli [11] = test: Antibacterial activity against Escherichia coli MTCC 42 assessed as zone of inhibition; assay type: functional

With COc1ccc(-c2[nH]nc3c2C(=O)c2c(NC(=O)CN4CCN(C(=N)N)CC4)cccc2-3)cc1 as the molecule, how does the IC50 [1] read?
The IC50 was 13 nM.

How did the IC50 [1] turn out when NC(=O)Nc1cccc2c1C(=O)c1c-2n[nH]c1-c1csc(Cl)c1 was run?
Its IC50 is 46 nM.

COc1cc2c(cc1OC)C1=NN(C(N)=S)C(c3ccc(F)cc3)C1C2 (stereo unspecified) was tested. Which MIC (Bacillus subtilis [2]) did it give?
Its MIC is 4 µg/mL (≈ 10.8 µM).

What about the MIC (Staphylococcus aureus [3]) of the same molecule?
The MIC was 4 µg/mL (≈ 10.8 µM).

What about the MIC (Escherichia coli [4]) of the same molecule?
The MIC was 4 µg/mL (≈ 10.8 µM).

And the MIC (Pseudomonas aeruginosa)?
Its MIC is 4 µg/mL (≈ 10.8 µM).

What does the source list for COc1ccc(C2C3Cc4cc(OC)c(OC)cc4C3=NN2C(N)=O)cc1 (stereo unspecified)?
MIC (Candida albicans [5]): 2 to 4 µg/mL (≈ 5.44 to 10.9 µM); MIC (Aspergillus niger [6]): 2 to 4 µg/mL

With O=C(Nc1cccc2c1C(=O)c1c-2n[nH]c1-c1ccc(C(=O)N2CCNCC2)s1)NN1CCOCC1 as the molecule, how does the IC50 [1] read?
Its IC50 is 8 nM.

Which “-logMIC” value (Escherichia coli [4]) does the source give for CCc1nn(-c2nc(-c3ccc(Cl)cc3)cs2)c2c1Cc1ccccc1-2 here?
The value was 1.78.

What does the source list for Clc1ccc(-c2c3c(nn2-c2ccccc2)-c2ccccc2C3)cc1?
MIC (Candida albicans [5]): 50 µg/mL (≈ 146 µM); MIC (Aspergillus niger [6]): 50 µg/mL; inhibition zone (IZ) (Candida albicans [7]): 16 mm; inhibition zone (IZ) (Aspergillus niger [8]): 16 mm

For Cc1nn(-c2nc(-c3ccc(Cl)cc3)cs2)c2c1C(=O)c1ccccc1-2, which “-logMIC” value (Escherichia coli [4]) is on record?
Its value is 1.479.

O=[N+]([O-])c1ccc(-c2nn(-c3ccccc3)cc2-c2c3c(nn2-c2ccccc2)-c2ccccc2C3)cc1 was tested. Which MIC (Bacillus subtilis [2]) did it give?
The MIC was 50 µg/mL (≈ 101 µM).

What about the MIC (Staphylococcus aureus [3]) of the same molecule?
Its MIC is 50 µg/mL (≈ 101 µM).

What about the MIC (Escherichia coli [4]) of the same molecule?
Its MIC is 50 µg/mL (≈ 101 µM).

And the MIC (Candida albicans [5])?
The MIC was 50 µg/mL (≈ 101 µM).

And the MIC (Aspergillus niger [6])?
The MIC was 50 µg/mL.

What about the “inhibition zone (IZ)” value (Bacillus subtilis [9]) of the same molecule?
The value was 20 mm.

And the “inhibition zone (IZ)” value (Staphylococcus aureus [10])?
Its value is 20 mm.

What about the “inhibition zone (IZ)” value (Escherichia coli [11]) of the same molecule?
The value was 20 mm.

What about the “inhibition zone (IZ)” value (Candida albicans [7]) of the same molecule?
Its value is 18 mm.

And the “inhibition zone (IZ)” value (Aspergillus niger [8])?
The value was 18 mm.

For COc1ccc(-c2n[nH]c3c2C(=O)c2c(C=O)cccc2-3)cc1, which IC50 [1] is on record?
The IC50 was 57 nM.

Which “-logMIC” value (Escherichia coli [4]) does the source give for Cc1nn(-c2nc(-c3ccc(Cl)cc3)cs2)c2c1Cc1ccccc1-2 here?
The value was 1.764.

For Clc1ccc(-c2nn(-c3ccccc3)cc2-c2c3c(nn2-c2ccccc2)-c2ccccc2C3)cc1, which MIC (Bacillus subtilis [2]) is on record?
The MIC was 50 µg/mL (≈ 103 µM).

What about the MIC (Staphylococcus aureus [3]) of the same molecule?
The MIC was 50 µg/mL (≈ 103 µM).

What about the MIC (Escherichia coli [4]) of the same molecule?
The MIC was 50 µg/mL (≈ 103 µM).

And the “inhibition zone (IZ)” value (Bacillus subtilis [9])?
Its value is 17 mm.

What about the “inhibition zone (IZ)” value (Staphylococcus aureus [10]) of the same molecule?
The value was 17 mm.

And the “inhibition zone (IZ)” value (Escherichia coli [11])?
The value was 17 mm.

How did the “-logMIC” value (Escherichia coli [4]) turn out when CCc1nn(-c2nc(-c3ccc(Cl)cc3)cs2)c2c1C(=O)c1ccccc1-2 was run?
Its value is 2.098.

What does the source list for O=[N+]([O-])c1ccc(-c2c3c(nn2-c2ccccc2)-c2ccccc2C3)cc1?
MIC (Bacillus subtilis [2]): 50 µg/mL (≈ 141 µM); MIC (Staphylococcus aureus [3]): 50 µg/mL (≈ 141 µM); MIC (Escherichia coli [4]): 50 µg/mL (≈ 141 µM); MIC (Candida albicans [5]): 50 µg/mL (≈ 141 µM); MIC (Aspergillus niger [6]): 50 µg/mL; inhibition zone (IZ) (Bacillus subtilis [9]): 18 mm; inhibition zone (IZ) (Staphylococcus aureus [10]): 18 mm; inhibition zone (IZ) (Escherichia coli [11]): 18 mm; inhibition zone (IZ) (Candida albicans [7]): 13 mm; inhibition zone (IZ) (Aspergillus niger [8]): 13 mm

Cc1ccc2nc(-n3nc(-c4ccc(Cl)cc4)c4c3-c3ccccc3C4=O)sc2c1 was tested. Which MIC (Aspergillus niger [6]) did it give?
The MIC was 3.6 µM.

For O=[N+]([O-])c1cccc(-c2c3c(nn2-c2ccccc2)-c2ccccc2C3)c1, which MIC (Bacillus subtilis [2]) is on record?
The MIC was 50 µg/mL (≈ 141 µM).

What about the MIC (Staphylococcus aureus [3]) of the same molecule?
The MIC was 50 µg/mL (≈ 141 µM).

And the MIC (Escherichia coli [4])?
Its MIC is 50 µg/mL (≈ 141 µM).

What about the MIC (Candida albicans [5]) of the same molecule?
The MIC was 50 µg/mL (≈ 141 µM).

And the MIC (Aspergillus niger [6])?
Its MIC is 50 µg/mL.

What about the “inhibition zone (IZ)” value (Bacillus subtilis [9]) of the same molecule?
The value was 17 mm.

And the “inhibition zone (IZ)” value (Staphylococcus aureus [10])?
Its value is 17 mm.

And the “inhibition zone (IZ)” value (Escherichia coli [11])?
Its value is 17 mm.

What about the “inhibition zone (IZ)” value (Candida albicans [7]) of the same molecule?
The value was 15 mm.

What about the “inhibition zone (IZ)” value (Aspergillus niger [8]) of the same molecule?
Its value is 15 mm.

For OC(Cn1cncn1)(Cn1cncn1)c1ccc(F)cc1F [FLUCONAZOLE], which MIC (Aspergillus niger [6]) is on record?
The MIC was 5 µM.

Reference: ChEMBL document CHEMBL4406795, “An overview on the synthetic and medicinal perspectives of indenopyrazoles” (Eur J Med Chem, 2019)
